The OligoGym collection
After the bases stand the sugars from the 5' end (letter, count) and the backbone: PS all phosphorothioate, else s phosphorothioate and o phosphodiester by linkage. Methylation of C is not given here. l = locked nucleic acid (LNA); d = 2'-deoxy (DNA)

Target: SNHG14
Conditions: ASO
[1] = Mouse Primary Neuronal Cell, 0.005 µM

Row | Sequence | target mRNA inhibition (Human Neuronal Cell, 0.2 µM) [%] | target mRNA inhibition (Human Neuronal Cell, 1 µM) [%] | target mRNA inhibition (Human Neuronal Cell, 7.5 µM) [%] | also measured
1 | TCCTCTGCTTATAACT (sugars l3 d11 l2, PS) | 51 | 77 |  | 
2 | TCTCTAATCCTATTCC (sugars l4 d10 l2, PS) | 53 | 58 |  | 
3 | TCTGTATACACCATCCC (sugars l2 d13 l2, PS) |  |  | 62 | 
4 | TCTGTATACACCATCCCA (sugars lddddlddddddddldll, PS) |  |  | 61 | 
5 | TCTTATCCTTGAATTTC (sugars l4 d11 l2, PS) | 37 | 33 |  | 
6 | TCTTCAAGAATTCTCT (sugars l2 d10 l4, PS) | 44 | 46 |  | 
7 | TCTTCAGCTTTCTAAAT (sugars l4 d11 l2, PS) | 5 | 24 |  | 
8 | TCTTTAAGCTTCCCAC (sugars l2 d10 l4, PS) | 34 | 44 |  | 
9 | TCTTTCCATTTATTTCCA (sugars l4 d12 l2, PS) | 53 | 60 |  | 
10 | TCTTTCCATTTATTTCCAT (sugars l2 d3 l1 d11 l2, PS) |  |  | 54 | 
11 | TCTTTCCATTTATTTCCAT (sugars l2 d13 l1 d1 l2, PS) |  |  | 42 | 
12 | TCTTTCCATTTATTTCCATT (sugars l2 d3 l1 d12 l2, PS) |  |  | 47 | 
13 | TCTTTCCATTTATTTCCATT (sugars l2 d4 l1 d10 l3, PS) |  |  | 57 | 
14 | TCTTTCCATTTATTTCCATT (sugars l2 d13 l1 d2 l2, PS) |  |  | 42 | 
15 | TCTTTCCATTTATTTCCATT (sugars l2 d14 l1 d1 l2, PS) |  |  | 46 | 
16 | TGAACAACTTCTATCA (sugars l3 d10 l3, PS) | 17 | 16 |  | 
17 | TGTATATAACTATTCC (sugars l4 d10 l2, PS) | 21 | 20 |  | 
18 | TGTTTATACCCTTTCCAA (sugars l1 d1 l2 d12 l2, PS) |  |  | 63 | 
19 | TGTTTATACCCTTTCCAA (sugars l2 d2 l1 d11 l2, PS) |  |  | 64 | 
20 | TGTTTATACCCTTTCCAA (sugars ldddldddddddddldll, PS) |  |  | 58 | 
21 | TGTTTCCATCTACTATTA (sugars l1 d4 l1 d8 l4, PS) |  |  | 67 | 
22 | TGTTTCCATCTACTATTA (sugars ldldddddddddddldll, PS) |  |  | 61 | 
23 | TTACCTACATCTCATAC (sugars l2 d13 l2, PS) | 1 | -8 |  | target mRNA inhibition (Human Neuronal Cell, 5 µM): 19%; target mRNA inhibition [1]: 79%
24 | TTACCTACATCTCATACT (sugars l2 d12 l4, PS) | -6 | -7 |  | target mRNA inhibition (Human Neuronal Cell, 5 µM): 16%; target mRNA inhibition [1]: 95.6%
25 | TTACTCTGCAATACAC (sugars l3 d10 l3, PS) | 46 | 61 |  | 
26 | TTACTCTGCAATACACC (sugars l2 d11 l4, PS) | 55 | 57 |  | 
27 | TTAGTATACCCTTTAT (sugars l3 d10 l3, PS) | 28 | 20 |  | 
